For orientation: inhibition means the relative decrease from the control value, in per cent.

Chain of AM2 S31 (wild-type serine at position 31 in the M2 protein), influenza virus A/Udorn/72 (P0DOF5 whole entry, looked up): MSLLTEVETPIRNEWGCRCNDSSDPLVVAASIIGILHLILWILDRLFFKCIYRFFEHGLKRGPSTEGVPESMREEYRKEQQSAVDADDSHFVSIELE

One assay has as its target AM2 S31 (wild-type serine at position 31 in the M2 protein), influenza virus A/Udorn/72 (Influenza A virus, UniProt P0DOF5). Kind of assay: cell-based. To be noted: 100 uM; Xenopus oocytes; activity range class; read-out: S31 OOcyte Inhibition at 100 uM (%).
As to `c1coc(CNC23CC4CC(CC(C4)C2)C3)c1` [Example 69a, Adamantan-1-yl-furan-2-ylmethyl-amine], the inhibition at 100 µM fell in the range of 31 to 95%.

For `c1csc(CNC23CC4CC(CC(C4)C2)C3)c1` [Example 70a, Adamantan-1-yl-thiophen-2-ylmethyl-amine], the inhibition at 100 µM lay within 31 to 95%.

On to `c1csc(CNC23CC4CC(CC(C4)C2)C3)n1` [Example 71a, Adamantan-1-yl-thiazol-2-ylmethyl-amine], for which the inhibition at 100 µM fell in the range of 31 to 95%.

For the compound `c1c[nH]c(CNC23CC4CC(CC(C4)C2)C3)c1` [Example 72a, Adamantan-1-yl-(1H-pyrrol-2-ylmethyl)-amine], the inhibition at 100 µM was in the range of 31 to 95%.

For the compound `c1nc(CNC23CC4CC(CC(C4)C2)C3)no1` [Example 73a, Adamantan-1-yl-[1,2,4]oxadiazol-3-ylmethyl-amine], the inhibition at 100 µM fell in the range of 31 to 95%.

For the compound `COc1ccsc1CNC12CC3CC(CC(C3)C1)C2` [Example 74a, Adamantan-1-yl-(3-methoxy-thiophen-2-ylmethyl)-amine], the inhibition at 100 µM is 31 to 95%.

Consider `COc1ccc(CNC23CC4CC(CC(C4)C2)C3)s1` [Example 75a, N-((5-methoxythiophen-2-yl)methyl)adamantan-1-amine], for which the inhibition at 100 µM was 31 to 95%.

As to `Cc1ccsc1CNC12CC3CC(CC(C3)C1)C2` [Example 76a, N-((3-methylthiophen-2-yl)methyl)adamantan-1-amine], the inhibition at 100 µM lay within 31 to 95%.

The assay is the same for the next values; noted with them: Table 1; 100 uM; Xenopus oocytes, pH 5.5, -20 mV; read-out: S31 OOcyte Inhibition at 100 uM (%).
Consider `Oc1cc(F)c(CNC23CC4CC(CC(C4)C2)C3)c(F)c1` [Example 69, 4-(Adamantan-1-ylaminomethyl)-3,5-difluoro-phenol], for which the inhibition at 100 µM was in the range of 31 to 95%.

With `Oc1cc(O)c(CNC23CC4CC(CC(C4)C2)C3)c(O)c1` [Example 70, 2-(Adamantan-1-ylaminomethyl)-benzene-1,3,5-triol], the inhibition at 100 µM fell in the range of 0 to 30%.

On to `Oc1c(F)c(F)c(CNC23CC4CC(CC(C4)C2)C3)c(F)c1F` [Example 71, 4-(Adamantan-1-ylaminomethyl)-2,3,5,6-tetrafluoro-phenol], for which the inhibition at 100 µM was in the range of 0 to 30%.

For the compound `c1ccc(CNC23CC4CC(CC(C4)C2)C3)nc1` [Example 72, Adamantan-1-yl-pyridin-2-ylmethyl-amine], the inhibition at 100 µM was 0 to 30%.

Regarding `c1cc(CNC23CC4CC(CC(C4)C2)C3)ccn1` [Example 73, Adamantan-1-yl-pyridin-4-ylmethyl-amine], the inhibition at 100 µM lay within 31 to 95%.

On to `[O-][n+]1ccc(CNC23CC4CC(CC(C4)C2)C3)cc1` [Example 74, Adamantan-1-yl-(1-oxy-pyridin-4-ylmethyl)-amine], for which the inhibition at 100 µM is 0 to 30%.

Turning to `Nc1ncc(CNC23CC4CC(CC(C4)C2)C3)cn1` [Example 75, 5-(Adamantan-1-ylaminomethyl)-pyrimidin-2-ylamine], the inhibition at 100 µM lay in the range of 31 to 95%.

Staying with this assay, now noted: Table 3; 100 uM; Xenopus oocytes, pH 5.5, -20 mV; read-out: S31 OOcyte Inhibition at 100 uM (%).
With `COc1ccccc1-c1ccc(CNC23CC4CC(CC(C4)C2)C3)nc1` [Example 69b, Adamantan-1-yl-[5-(2-methoxy-phenyl)-pyridin-2-ylmethyl]-amine], the inhibition at 100 µM lay in the range of 0 to 30%.

On to `Clc1ccc(CNC23CC4CC(CC(C4)C2)C3)nn1` [Example 70b, Adamantan-1-yl-(6-chloro-pyridazin-3-ylmethyl)-amine], for which the inhibition at 100 µM was in the range of 31 to 95%.

For the compound `c1csc(-c2ccc(CNC34CC5CC(CC(C5)C3)C4)nn2)c1` [Example 71b, Adamantan-1-yl-(6-thiophen-2-yl-pyridazin-3-ylmethyl)-amine], the inhibition at 100 µM lay within 0 to 30%.

In the case of `Clc1ccccc1-c1ccc(CNC23CC4CC(CC(C4)C2)C3)nc1` [Example 72b, Adamantan-1-yl-[5-(2-chloro-phenyl)-pyridin-2-ylmethyl]-amine], the inhibition at 100 µM fell in the range of 0 to 30%.

For the compound `C[Si](C)(C)c1ccc(CNC23CC4CC(CC(C4)C2)C3)s1` [Example 75b, Adamantan-1-yl-(5-trimethylsilanyl-thiophen-2-ylmethyl)-amine], the inhibition at 100 µM is 0 to 30%.

(Values after patent US9884832B2 (priority 2011, dated 2018).)
